Data: patent US20240360178A1, “MACROCYCLIC IMMUNOMODULATORS” (Bristol-Myers Squibb Company, priority 2021, published 2024)
Positions of bridges follow the written chain, without caps; N, C: chain ends. Non-standard residues stand in square brackets, D forms with d. Residues, ends and D or L forms follow the SMILES beside them. *: point of attachment. Bip = N[C@@H](Cc1ccc(-c2ccccc2)cc1)C(=O)O; NMeF = CN[C@@H](Cc1ccccc1)C(=O)O; hArg = N=C(N)NCCCC[C@H](N)C(=O)O; Cha = N[C@@H](CC1CCCCC1)C(=O)O; Cit = NC(=O)NCCC[C@H](N)C(=O)O; Carboxymethyl = O=C(O)C*; NMeA = CN[C@@H](C)C(=O)O; Orn = NCCC[C@H](N)C(=O)O

Target: T1, human PD-1 (Jurkat-PD-1 cells) / PE-labeled human PD-L1-Ig (Homo sapiens, UniProt Q15116)
T1 construct: expressed in transfected cells; host or cells: Jurkat cell line over-expressing human PD-1
Experiment: Jurkat-PD-1 Cell Binding High-Content Screening Assay (CBA); Jurkat hPD1-PDL1 assay
Details: Jurkat cell line over-expressing human PD-1; PE-labeled PD-L1-Ig 20 nM final; compound incubated 2 hours at 37° C.; read-out: Jurkat HPD1-PDL1 IC50
In short: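 Binding of phycoerythrin-conjugated PD-L1-Ig (20 nM final) to PD-1-overexpressing Jurkat cells was read by high-content imaging. Cells in DMEM/10% FCS were exposed to compound for 2 hours at 37° C before labeled ligand was added.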

T1 sequence (Q15116 25-288): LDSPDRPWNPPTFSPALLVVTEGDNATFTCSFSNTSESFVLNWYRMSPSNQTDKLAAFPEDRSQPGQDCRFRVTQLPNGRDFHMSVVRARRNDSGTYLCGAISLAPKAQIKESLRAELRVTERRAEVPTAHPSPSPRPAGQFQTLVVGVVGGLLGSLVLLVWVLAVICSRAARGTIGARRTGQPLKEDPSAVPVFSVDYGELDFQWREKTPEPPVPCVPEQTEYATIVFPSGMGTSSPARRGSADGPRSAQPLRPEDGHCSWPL

IC50 [nM]	Structure (SMILES)
60	CC(C)C[C@@H]1NC(=O)[C@H](CCCNC(=N)N)NC(=O)[C@H](Cc2ccccc2)N(C)C(=O)[C@H](C)N(C)C(=O)[C@H](CCCN)NC(=O)[C@H](Cc2ccc(-c3ccccc3)cc2)NC(=O)[C@H](C(C)C)NC(=O)[C@H](Cc2c[nH]c3ccccc23)NC(=O)[C@H](CC(=O)O)NC(=O)[C@H](Cc2ccc(O)cc2)NC(=O)[C@H](Cc2ccccc2)NC(=O)CSC[C@@H](C(=O)NCC(N)=O)NC(=O)[C@H](CO)NC(=O)[C@H](C(C)C)NC1=O [Example 1243] ({CH2CO}-FYDWV[Bip][Orn][NMeA][NMeF]RLVSCG-NH2; thioether N-14)
190	CC(C)C[C@@H]1NC(=O)[C@H](CCCNC(=N)N)NC(=O)[C@H](Cc2ccccc2)N(C)C(=O)[C@H](C)N(C)C(=O)[C@H](CCCCNC(=N)N)NC(=O)[C@H](Cc2ccc(-c3ccccc3)cc2)NC(=O)[C@H](C(C)C)NC(=O)[C@H](Cc2c[nH]c3ccccc23)NC(=O)[C@H](CC(=O)O)NC(=O)[C@H](Cc2ccc(O)cc2)NC(=O)[C@H](Cc2ccccc2)NC(=O)CSC[C@@H](C(=O)NCC(N)=O)NC(=O)[C@H](CO)NC(=O)[C@H](C(C)C)NC1=O [Example 1244] ({CH2CO}-FYDWV[Bip][hArg][NMeA][NMeF]RLVSCG-NH2; thioether N-14)
110	CC(C)C[C@@H]1NC(=O)[C@H](CCCNC(=N)N)NC(=O)[C@H](Cc2ccccc2)N(C)C(=O)[C@H](C)N(C)C(=O)[C@H](CCCNC(N)=O)NC(=O)[C@H](Cc2ccc(-c3ccccc3)cc2)NC(=O)[C@H](C(C)C)NC(=O)[C@H](Cc2c[nH]c3ccccc23)NC(=O)[C@H](CC(=O)O)NC(=O)[C@H](Cc2ccc(O)cc2)NC(=O)[C@H](Cc2ccccc2)NC(=O)CSC[C@@H](C(=O)NCC(N)=O)NC(=O)[C@H](CO)NC(=O)[C@H](C(C)C)NC1=O [Example 1245] ({CH2CO}-FYDWV[Bip][Cit][NMeA][NMeF]RLVSCG-NH2; thioether N-14)
250	CC(C)C[C@@H]1NC(=O)[C@H](CCCNC(=N)N)NC(=O)[C@H](Cc2ccccc2)N(C)C(=O)[C@H](C)N(C)C(=O)[C@H](CCCNC(=N)N)NC(=O)[C@H](Cc2ccc(-c3ccccc3)cc2)NC(=O)[C@H](C(C)C)NC(=O)[C@H](Cc2c[nH]c3ccccc23)NC(=O)[C@H](CC(=O)O)NC(=O)[C@H](Cc2ccc(O)cc2)NC(=O)[C@H](Cc2ccc(OCC(=O)O)cc2)NC(=O)CSC[C@@H](C(=O)NCC(N)=O)NC(=O)[C@H](CO)NC(=O)[C@H](C(C)C)NC1=O [Example 1246] ({CH2CO}-Y(Carboxymethyl)YDWV[Bip]R[NMeA][NMeF]RLVSCG-NH2; thioether N-14)
230	COc1ccc(C[C@@H]2NC(=O)CSC[C@@H](C(=O)NCC(N)=O)NC(=O)[C@H](CO)NC(=O)[C@H](C(C)C)NC(=O)[C@H](CC(C)C)NC(=O)[C@H](CCCNC(=N)N)NC(=O)[C@H](Cc3ccccc3)N(C)C(=O)[C@H](C)N(C)C(=O)[C@H](CCCNC(=N)N)NC(=O)[C@H](Cc3ccc(-c4ccccc4)cc3)NC(=O)[C@H](C(C)C)NC(=O)[C@H](Cc3c[nH]c4ccccc34)NC(=O)[C@H](CC(=O)O)NC(=O)[C@H](Cc3ccc(O)cc3)NC2=O)cc1 [Example 1247] ({CH2CO}-Y(Me)YDWV[Bip]R[NMeA][NMeF]RLVSCG-NH2; thioether N-14)
360	CC(C)C[C@@H]1NC(=O)[C@H](CCCNC(=N)N)NC(=O)[C@H](Cc2ccccc2)N(C)C(=O)[C@H](C)N(C)C(=O)[C@H](CCCNC(=N)N)NC(=O)[C@H](Cc2ccc(-c3ccccc3)cc2)NC(=O)[C@H](C(C)C)NC(=O)[C@H](Cc2c[nH]c3ccccc23)NC(=O)[C@H](CC(=O)O)NC(=O)[C@H](Cc2ccc(O)cc2)NC(=O)[C@H](CC2CCCCC2)NC(=O)CSC[C@@H](C(=O)NCC(N)=O)NC(=O)[C@H](CO)NC(=O)[C@H](C(C)C)NC1=O [Example 1248] ({CH2CO}-[Cha]YDWV[Bip]R[NMeA][NMeF]RLVSCG-NH2; thioether N-14)
